Measured values reported in US11883509B2, “Pharmaceutical composition for inhalation administration for labeling pulmonary tumorous lesion, containing fluorescent contrast agent as active ingredient” (KOREA UNIVERSITY RESEARCH AND BUSINESS FOUNDATION, priority 2018, dated 2024).
Values joined by “and” are separate entries in the source; they are usually repeats but may differ in a detail not shown here. Identical values can stand only once.

Experiments:
Type in all cases: in vivo
lung cancer cells = assay: Distribution of inhaled ICG in mouse lung cancer model with GFP-labeled lung cancer cells; details: fluorescence imaging
From the text: In order to investigate the boundary of cancer cells and ICG distribution more accurately, a mouse lung cancer model was established by labeling lung cancer cells with GFP and the distribution of ICG administered through respiration was investigated by fluorescence imaging.

lung tumor = assay: Visualization of lesion in human lungs through administration of ICG via bronchus
Experimental: As confirmed in Examples 2-4, remarkably high cancer detection rate could be achieved through airway administration of ICG for lung tumor even with a less amount of ICG. […] Specifically, the lobar bronchi of six lung tumor patients who received surgery for pulmonary nodules in Korea University Guro Hospital were connected with tubes and 0.75 mg/mL ICG was administered for 4 minutes using a nebulizer. Then, fluorescence images were acquired using a NIR imaging system.

VX2 carcinoma [1] = assay: Identification of boundary of cancer tissue in lung tumor-induced rabbit model through airway administration of ICG; details: ICG 0.75 mg/mL inhaled 4 minutes
Experimental: (§1) In Example 1, it was confirmed that the ICG administered via the airway through respiration stained the lung tissue quickly and emitted strong fluorescence with little effect on other organs. Then, it was investigated whether the airway administration of ICG can be used to distinguish cancer tissue from normal tissue by staining only the normal tissue in a lung tumor animal model. Specifically, a lung tumor-induced rabbit model was prepared as shown in FIG. 2 by transplanting VX2 carcinoma into the lungs of a rabbit. The rabbit was made to inhale ICG (0.75 mg/mL) for 4 minutes by connecting a nebulizer to a ventilator. 1 hour later, the chest of the rabbit was cut open and the fluorescence images of the lung were acquired using a NIR imaging system. After conducting surgery for pulmonary nodules, the excised lung tissue was prepared into 10 μm-thick cryosections and optical images were acquired using a NIR microscope. Then, the lung tissue was stained with H&E, and the boundary of cancer tissue was observed histologically.

VX2 carcinoma [2] = assay: Cancer detection rate (TMDE) in lung tumor-induced rabbit model depending on administration route of ICG; details: 0.25 mg/kg ICG through respiration vs 5 mg/kg intravenous, TMDE at 1, 3, 6, 24 hours
Experimental: as §1, with “Then, the lung tissue was stained with H&E, and the boundary of cancer tissue was observed histologically.” left out
Specifically, after extracting the lungs from a lung tumor-induced rabbit model to which 0.25 mg/kg ICG was administered through respiration in the same manner as in Example 2 and a lung tumor-induced rabbit model to which 5 mg/kg ICG was administered intravenously, fluorescence images were acquired and TMDE was quantitated 1 hour later, 3 hours later, 6 hours later and 24 hours later using a NIR imaging system.

VX2 carcinoma [3] = assay: Cancer detection rate (TMDE) in lung tumor-induced rabbit model depending on concentration of administered ICG
Experimental: as §1
It was investigated whether the desired effect can be achieved with a less amount of ICG administered by airway administration as compared to intravenous administration of ICG. Specifically, after administering ICG at different concentrations (0.1 mg/kg, 0.25 mg/kg, 0.5 mg/kg, 1 mg/kg) in the same manner as in Example 2 to the lung tumor-induced rabbit model of Example 2, the fluorescence images of the lung were acquired and TMDE (tumor margin detection efficiency) depending on the ICG concentration was compared.

[4] = Distribution of ICG administered to normal mice via airway and fluorescence duration
Experimental: It was investigated, when Indocyanine green (ICG) is administered via the airway of a subject through respiration, whether the lungs are stained properly, organs other than the lungs are also affected, how long the staining lasts, etc. More specifically, 0.25 mg/mL ICG were administered to normal mice for 10 minutes through respiration using the SciReq nebulizer, as shown in FIG. 1a. The, the ICG (2.5 mg/kg)-administered mice were sacrificed 10 minutes, 1 hour, 3 hours, 6 hours and 24 hours later. After extracting the brain, lung, liver, kidney and spleen, fluorescence images were acquired and fluorescence signal intensity was measured using a fluorescence imaging system.

[5] = six lung tumor patients, 0.75 mg/mL ICG via lobar bronchus 4 minutes
[6] = airway administration by nebulizer, ICG 2.5 mg/kg
[7] = airway administration, extracted organs, fluorescence imaging

time after administration at which fluorescence is emitted in the lungs [4, 6]: ≤ 10 min
time after administration at which fluorescence signals could still be detected [4, 6]: ≥ 24 h
time of peak fluorescence signals after administration [4, 6]: 1 h
distribution of ICG in the kidney and spleen [4, 7]: almost nonexistent
Compound: CC1(C)C(/C=C/C=C/C=C/C=C2\N(CCCCS(=O)(=O)O)c3ccc4ccccc4c3C2(C)C)=[N+](CCCCS(=O)(=O)[O-])c2ccc3ccccc3c21 [ICG, Indocyanine green]
distribution of ICG administered through respiration (lung cancer cells): distributed through the lungs except for the lung cancer cells
TMDE (lung tumor; six lung tumor patients (Case 1-6, one value per patient), 0.75 mg/mL ICG via lobar bronchus 4 minutes by nebulizer): 2.8 (2×) and 2.7 and 3.3 and 2.6 and 3.4
boundary between cancer tissue and normal tissue versus pathology (lung tumor; [5]): consistent with the pathological outcome for each patient
distribution of inhaled ICG in human lungs (lung tumor; [5]): distributed only in the normal tissue of the lungs
boundary of cancer tissue identified by ICG versus H&E histology (VX2 carcinoma [1]): consistent with the histologically observed boundary of cancer
diameter of the cancer tissue negatively contrasted by ICG (VX2 carcinoma [1]; imaged 1 hour later): 2 mm
distribution of inhaled ICG in cancer tissue versus normal tissue (VX2 carcinoma [1]; imaged 1 hour later): not distributed in the cancer tissue but stains the normal tissue only
cancer detection rate (TMDE) of respiration administration relative to intravenous administration (VX2 carcinoma [2]): ≥ 2.5 times
ICG concentration needed for accurate detection of the boundary of lung tumor (VX2 carcinoma [3]; airway administration): ≥ 0.25 mg/kg
detection of boundary of cancer tissue (VX2 carcinoma [3]; airway administration of ICG at 0.1, 0.25, 0.5 and 1 mg/kg): could be detected effectively
lung tumor detection rate (TMDE) versus ICG concentration (VX2 carcinoma [3]; airway administration, 0.1-1 mg/kg): increased depending on the concentration of ICG
distribution of ICG in the lung [4, 7]: present at high concentrations particularly in the lung
